According to patent publication US6723680B2, “Composition for regulation of gametophytic self-incompatibility, control method of gametophytic self-incompatibility of a plant and the plant self-pollinated by using said control method” (Istech Co., Ltd., priority 2000, dated 2004):
Where two headings read alike, the source gives them in different places.

Assays:
[1] = system: pollen tube of Fuji apple; test: Pollen tube elongation of self-pollen in medium with style-specific RNase and inhibitor; assay type: cell-based; conditions: 10 units S1 RNase in medium
Method: To investigate the effect of the style-specific S1 RNase purified in the example 1-4 on pollen tube elongation of self-pollen, experiment was conducted as follows. First of all, only the self-pollen made from a stamen of Fuji apple was isolated. The isolated pollen was cultured in the medium for pollen tube elongation, which was added with 0, 2, 4 and 6 units (mg^−1min^−1ml) of S1 RNase purified in the example 1-4, respectively, in a dark condition for 24 hours at 28° C. The medium for pollen tube elongation is composed of 20 mM Mes-KOH (pH 6.0), 0.07% Ca(NO3)2·4H2O, 0.02% MgSO4·7H2O, 0.01% KNO3, 0.01% H3BO3 and 2% sucrose, and elongates pollen tube artificially.
10 units (mg^−1min^−1ml^−1) of the style-specific S1 RNase was added to the medium for pollen tube elongation, and ZnSO4 and CuSO4 were added thereto at 1 mM, 2 mM and 5 mM respectively. And then, pollen tube was cultured according to the same method as the Example 2.

[2] = system: wild-type tomato; assay type: in vivo; conditions: for Fruition rate: siloxane spreader 0.0335%, 4 days before full blooming; for concentration in which harmful effect of a medicine occurred: in vivo
Method: To investigate the fruition rate and harmful effects of a medicine according to the concentration of style-specific RNase inhibitors, ZnSO4 and CuSO4, style-specific RNase inhibitors of the present invention, were treated to wild-type tomato with various concentration in 4 days before full blooming.
Furthermore, to maximize the efficiency of the style-specific RNase inhibitor of the present invention as fruition control agents, ZnSO4 or CuSO4 was mixed with spreader of hexaconazole, siloxane and alkylaryl polyethoxylate class according to most appropriate usage amount by the manufacturer, and treated.
A composition mixed with the spreader of siloxane class (brand name:silhouette, Dongbu precision chemical company, Korea) to 0.0335% was prepared and the composition was treated to wild-type tomato.

Row | SMILES | elongation of pollen tube ([1]; 1 mM inhibitor) | Fruition rate ([2]; 20 ppm) | Fruition rate ([2]; 40 ppm) | Fruition rate ([2]; 60 ppm) | Fruition rate ([2]; 80 ppm) | Fruition rate ([2]; 100 ppm) | Fruition rate ([2]; 200 ppm) | Fruition rate ([2]; 300 ppm) | Fruition rate ([2]; 400 ppm) | Fruition rate ([2]; 500 ppm) | Fruition rate ([2]; 600 ppm) | Fruition rate ([2]; 700 ppm) | Fruition rate ([2]; 800 ppm) | Fruition rate ([2]; 900 ppm) | Fruition rate ([2]; 1000 ppm) | Fruition rate ([2]; 1100 ppm) | Fruition rate ([2]; 1200 ppm) | Fruition rate ([2]; 1300 ppm) | Fruition rate ([2]; 1400 ppm) | Fruition rate ([2]; 1500 ppm) | other results
1 | O=S(=O)([O-])[O-].[Cu+2] [CuSO4] | elongated again | 0% | 15% | 41% | 59% | 97% | 92% | 88% | 85% | 77% | 73% | 73% | 44% | 16% | 7% | 0% | 0% | 0% | 0% | 0% | concentration in which harmful effect of a medicine occurred [2]: ≥ 800 ppm
2 | O=S(=O)([O-])[O-].[Zn+2] [ZnSO4] | elongated again | 0% | 13% | 31% | 61% | 99% | 98% | 93% | 88% | 85% | 84% | 74% | 71% | 62% | 0% | 0% | 0% | 0% | 0% | 0% | elongation of pollen tube ([1]; 2 mM inhibitor): elongated again; concentration in which harmful effect of a medicine occurred [2]: ≥ 900 ppm
